The text below walks through data of patent publication US12569473B2, “Methods to treat respiratory infection utilizing castanospermine analogs” (60 Degrees Pharmaceuticals, Inc., priority 2022, dated 2026).

SMILES strings stand for the structures. Where a name gives a salt, the structure may show the parent alone. Bounds are passed on as bounds.

Data set [1] relates to embryonic African green monkey kidney cells (MA-104). Briefly: Cytotoxicity, visual examination, MA-104 cells. The following applies: all concentrations tested (0.3-300 microM); text summary of the cytotoxicity assays. The data set is classed as cell-based. The protocol:
(§1) The efficacy of celgosivir and castanospermine against RSV and human rhinovirus-14 was assessed in vitro. For RSV studies, embryonic African green monkey kidney cells (MA-104) were grown in minimal essential medium (MEM) supplemented with 0.1% NaHCO3 and 10% fetal bovine serum. When performing antiviral assays, serum was reduced to 2% and […] gentamicin was added to the medium. RSV strain A2 was used for the studies. For rhinovirus studies, the HeLa Ohio cell line was used in place of MA-104 cells.
(§2) CPE inhibition assays with visual quantification of antiviral activity and cytotoxicity were performed as described by Sidwell and Huffman (1971) with slight modifications. Sidwell, R. W. and Huffman, J. H. (1971) Use of disposable micro-tissue culture plates for antiviral and interferon induction studies. Appl. Microbiol. 22, […]. […] All compounds were assayed for virus inhibition in quadruplicate and for cytotoxicity in duplicate. For rhinovirus studies, Pirodavir was applied at a concentration of 0.001-1 μg/ml as the positive control compound. For RSV studies, the positive control compound was Ribavirin applied at a concentration of 0.5-500 μg/ml. For each compound, two wells were set aside as uninfected, untreated cell controls per test and four wells per test received virus only and represented controls for virus replication. […] For all CPE-based assays, the 50% effective concentration (EC50) was calculated by regression analysis using the means of the CPE ratings at each concentration of compound. Morphological changes due to compound cytotoxicity were graded on a scale of 0-5; grade 5 was defined as 100% cytotoxicity. The 50% cytotoxic dose (IC50) was calculated by regression analysis. A selective index (S.I.) was calculated for each compound (SI.=(IC50)/(EC50)).

Data set [2] in a line: Cytotoxicity, visual examination, MA-104 cells. It is filed as cell-based, African green monkey. The following applies: African green monkey, MA-104 cells (embryonic African green monkey kidney), unit inferred, read-out: CC50. The protocol: as §1, §2
Another data set relates to RSV [strain A/A2]. Briefly: Pulmonary histopathology in RSV-infected cotton rats. It is filed as in vivo, Cotton rats [Sigmodon hispidus]. The following applies: for lung histopathology scores (RSV-induced inflammation): Day 5 post infection, celgosivir 25, 50 or 100 mg/kg BID from one day before or after infection, synagis 2.5 mg/kg i.m. once per day, vs vehicle. The method, then: Cotton rats [Sigmodon hispidus, 2 male & 3 female, 6-8 weeks old] provided with standard rodent chow and water ad lib, were infected intranasally with RSV [strain A/A2, 10^5 pfu] on Day 0. Animals received celgosivir [25, 50 or 100 mg/kg BID for total daily doses of 50, 100 or 200 mg/kg] daily beginning one day before or after infection and were sacrificed on Day 5-post-infection for histopathology, qPCR, and viral load assessment. Control groups included a [i] positive control Synagis [2.5 mg/kg, i.m, once per day from the first day post-infection], [ii] vehicle control in which vehicle was administered twice per day beginning one day prior to RSV infection, [iii] a vehicle control group that were mock-infected with PBS for which treatment was initiated beginning one day prior to infection, and [iv] an untreated group mock infected with PBS that received no treatment. Animals were weighed on Day −1 and Day 5, and plasma was obtained by retro-orbital bleed on the same days.
The RSV strain for inoculation [A/A2 (RSV A/A2) (ATCC, Manassas, VA)] was propagated in HEp-2 cells after serial plaque-purification to reduce defective-interfering particles. A pool of virus designated containing approximately 3.0×10^8 pfu/mL in sucrose stabilizing media was used in the experiment. This stock of virus was stored at −80° C. and was previously characterized in vivo in the cotton rat model and validated for upper and lower respiratory tract replication.
Pulmonary Histopathology: Lungs were removed and inflated with 10% neutral buffered formalin to their normal volume, then fixed [using the same solution]. After fixation, lungs were embedded in paraffin, sectioned, and stained with H&E. Four parameters of pulmonary inflammation were evaluated: peribronchiolitis (inflammatory cell infiltration around the bronchioles), perivasculitis (inflammatory cell infiltration around the small blood vessels), interstitial pneumonia (inflammatory cell infiltration and thickening of alveolar walls), and alveolitis (cells within the alveolar spaces). Slides were blindly scored on a 0-4 severity scale. The scores are subsequently converted to a 0-100% normalized scale.
Statistics: Group means for each parameter were evaluated by one-way ANOVA, then individual group means were compared [t-test, with multiple comparison correction] to the RSV-infected, vehicle-treated control group. P<0.05 was considered statistically significant.

Another data set has as its system RSV strain A2. Briefly: CPE inhibition assay, visual examination, RSV. The data set is classed as cell-based. The following applies: for EC50: human respiratory syncytial virus, unit inferred. The method, then:
as §1, §2

For data set [3] the following is noted: literature (Sorbera et al); cited from earlier work.
For a further data set, the system named is human rhinovirus-14. Briefly: CPE inhibition assay, visual examination, human rhinovirus-14. The data set is classed as cell-based. The protocol: as §1, §2
The nature of data set [4]: Cytotoxicity, neutral red assay, HeLa Ohio cells. It is filed as cell-based. The conditions noted are these: human, compounds tested at 0.3, 3, 30 and 300 microM, unit inferred. The method, then: as §1
CPE inhibition assays with visual quantification of antiviral activity and cytotoxicity were performed as described by Sidwell and Huffman (1971) with slight modifications. Sidwell, R. W. and Huffman, J. H. (1971) Use of disposable micro-tissue culture plates for antiviral and interferon induction studies. Appl. Microbiol. 22, […]. […] All compounds were assayed for virus inhibition in quadruplicate and for cytotoxicity in duplicate. For rhinovirus studies, Pirodavir was applied at a concentration of 0.001-1 μg/ml as the positive control compound. For RSV studies, the positive control compound was Ribavirin applied at a concentration of 0.5-500 μg/ml. For each compound, two wells were set aside as uninfected, untreated cell controls per test and four wells per test received virus only and represented controls for virus replication. […] A selective index (S.I.) was calculated for each compound (SI.=(IC50)/(EC50)).
Neutral red assay of CPE inhibition and cytotoxicity was performed by a modified method as described by Cavenaugh et al. (1990). […] Briefly, medium was removed from each well of a plate scored for CPE from the visual CPE inhibition assay, 0.2 ml of neutral red (0.034% in PSS) was added to each of the wells of that plate and the plate incubated for 2 h at 37° C. in the dark. […] Absorbances at 540 and 450 nm were read with a microplate reader (Bio-Tek EL 1309; Bio-Tek Instruments). […] Absorbance values were expressed as percentages of untreated controls and EC50 and IC50 values were calculated by regression analysis

Take `CCCC(=O)O[C@H]1CN2CC[C@H](O)[C@@H]2[C@@H](O)[C@@H]1O` [Celgosivir HCL]: the “safety in vitro (CC50 above the highest concentration tested)” value in data set [1] was “safe at all concentrations tested”. The CC50 at 6 days in data set [2] (RSV studies, text summary over visual and neutral red assays) is ≥ 300 µM; in data set [2] (visual examination, MA-104 cells, compounds tested at 0.3, 3, 30 and 300 microM) it was > 300 µM; in data set [4], > 300 µM. The “lung histopathology scores (RSV-induced inflammation)” value with RSV [strain A/A2] (listed as Celgosivir) is reported as “reduced inflammation at all doses on three of four histopathology parameters”; with RSV [strain A/A2] (listed as celgosivir), “reduced for at least one domain for all doses”. Further, the “impact of timing of administration on degree of protection against inflammation” value with RSV [strain A/A2] (dosing begun one day prior to vs one day after infection (FIG. 1)) was “minimal impact”. Besides, the 50% effective concentration (EC50) in the data set with RSV strain A2 (MA104, visual examination, MA-104 cells, compounds tested at 0.3, 3, 30 and 300 microM) is 37 µM; in the data set with RSV strain A2 (against RSV, text summary over visual and neutral red assays), 34 to 37 µM; in the data set with human rhinovirus-14 (visual examination, HeLa Ohio cells, compounds tested at 0.3, 3, 30 and 300 microM, unit inferred), > 300 µM. Besides, in the data set on RSV strain A2 (in vitro), the “efficacy against RSV infection” value is reported as “efficacious”. For the same compound, in data set [3], the “pharmacokinetics, dose linearity” value is given as “linear with dose over the tolerated dose range”. In addition, the “efficacy against human rhinovirus-14” value in the data set on human rhinovirus-14 (at the concentrations tested (0.3-300 microM)) is given as “Neither celgosivir nor castanospermine were determined to be efficacious”.
